According to patent EP0088462A2, “Anti-inflammatory and rheumatic composition containing organophosphonate and steroid” (THE PROCTER & GAMBLE COMPANY, priority 1982, dated 1983):
Marks after values point to notes of the source that are not given here.

Tested on: rat adjuvant arthritis
Experiment: Rat adjuvant arthritis (Example I): paw edema, bone changes and systemic parameters after 46 days of daily treatment
Format: in vivo, male Lewis rats
Details: for Group Average Fat Free Dry Weight of Bone from Tibias: daily
Excerpt: One hundred and twenty-five (125) male Lewis rats weighing between 160 and 180 grams each were randomly divided into 12 groups of ten rats each, except the vehicle control group which had 15 rats. Each group was placed under a treatment regimen as described in the table below for a 46 day period.
Adjuvant arthritis was induced in groups one through twelve by a single intradermal injection of heat-killed Mycobacterium butyricum in paraffin oil. The drug treatments wen begun on the same day that the adjuvant was administered, and continued on a daily basis through the study. Drug doses were adjusted each week for changes in body weight.
Paw edema was measured weekly by liquid displacement, immersing the hind legs in a liquid reservoir to the anatomical hair line. Bone changes were evaluated radiographically and by chemical analysis at the conclusion of the study. Ectopic calcification was quantitated by use of a point-counting system with grids of one millimeter square.
The diphosphonate treatment solution for use on the animals in group 2, 3, 7-12, was prepared as follows: the disodium salt of dichloromethane diphosphonic acid was dissolved in saline, adjusted to a pH of 7.4 using sodium hydroxide, and sterilized by vacuum filtration (0.2 micron). The concentration of this solution was adjusted to a concentration of 5 mg of C12 MDP (disodium salt) per milliliter of solution.
The prednisolone to be administered was suspended in […]. The concentration of this suspension was adjusted to 0.10 milligram per milliliter so that it could be administered at a dose volume of 0.5 ml/100 gm body weight.
The disodium salt of Cl2MDP was administered by subcutaneous ventral flank injections. The prednisolone was administered by gastric intubation.
At the end of the treatment period, the rats were sacrificed, necropsied, and the effects of the treatment on the rats were measured in the categories listed below.

[1] = single agent versus placebo (saline and methyl cellulose)

Row | Structure (SMILES) | Group Average Fat Free Dry Weight of Bone from Tibias (Cl2MDP 2 mg/kg subcutaneous, Prednisolone none) | Group Average Fat Free Dry Weight of Bone from Tibias (Cl2MDP 5 mg/kg subcutaneous, Prednisolone none) | inhibiting bone changes associated with arthritic disease [1] | inhibiting loss of body, weight [1] | inhibiting paw edema [1] | inhibiting spleen weight/body weight ratio [1] | Group Average Fat Free Dry Weight of Bone from Tibias (Cl2MDP none, Prednisolone 0.25 mg/kg by gastric intubation) | Group Average Fat Free Dry Weight of Bone from Tibias (Cl2MDP none, Prednisolone 0.50 mg/kg by gastric intubation) | Group Average Fat Free Dry Weight of Bone from Tibias (Cl2MDP none, Prednisolone 2.50 mg/kg by gastric intubation) | inhibiting pathological caldivication (prednisolone alone) | inhibiting the calcium and phosphorus in bone (prednisolone alone)
1 | O=P(O)(O)C(Cl)(Cl)P(=O)(O)O [Cl2MDP, Dichloromethanediphosphonic acid] | 372.48* | 382.42* | significantly more effective than the placebo | significantly more effective than the placebo | significantly more effective than the placebo | significantly more effective than the placebo |  |  |  |  | 
2 | C[C@]12C=CC(=O)C=C1CC[C@@H]1[C@@H]2[C@@H](O)C[C@@]2(C)[C@H]1CC[C@]2(O)C(=O)CO [Prednisolone, 11 β, 17, 21-Trihydroxypregna-1,4-diene-3, 20-dione] |  |  |  |  | effective |  | 308.96 | 311.56 | 315.58 | effective | effective
